From US20070254950A1, “Oculoselective Drugs and Prodrugs” (Othera Pharmaceuticals, Inc., priority 2004, published 2007)

Experiments:
albino rabbits [1] = assay: Corneal anesthesia measurements (Cochet's esthesiometer); assay type: in vivo, rabbit
Description: The effect of a 50 μl single instillation of 0.3%, 0.5%, 1.0% and 2.0% solution of compound 7 on corneal anesthesia, after a single instillation in the conjunctival sac of the right eyes of albino rabbits (N=5) was measured using a Cochet's esthesiometer (nylon thread: 0.12 mm diameter, 10 mm long). Corneal anesthesia was evaluated by the number of corneal mechanical stimuli necessary to induce a blinking reflex. The effect of drug solutions was compared with sterile 0.9% NaCl treated animals (control group) and 0.4% oxybuprocaine (Novesine®).

albino rabbits [2] = assay: Evaluation of ocular irritation; assay type: in vivo, rabbit
Description: Thirty albino rabbits were randomly divided into five groups. Each rabbit was dosed in the conjunctival sac of the right eye topically every ten minutes for one hour (six doses) with 50 μL of 0.0%, 0.3%, 0.5%, 1.0% and 2% of test compound, in 0.9% saline solution. The treated eye of each rabbit was examined for indications of ocular irritation, including swelling, discharge, redness, iritis of conjunctiva, eyelid, iris as well as opacity and involvement of the cornea. Individual scores were added to determine the degree of slight, moderate or severe irritation. Ocular observations were made before the treatment, one hour after the first and sixth instillation and then 1, 2, 3, 4 and 7 days, using a slit lamp.

[3] = Accelerated stability test of 0.25% solutions in acetate buffer, HPLC; assay type: physicochemical; settings: for projected shelf-life of eye drop formulation: at room temperature, projected from the accelerated test
Description: An accelerated stability test was conducted on 0.25% solutions of compounds 6, 7, and 8 (Example 2) at 40° C. for 1, 2, 3, 4, 8 and 12 weeks and monitored for the disappearance of the prodrugs and appearance of the parent compound by HPLC analysis. The parent compound (referred to hereinafter as compound 4) has the formula: [drawing 47]
The respective compounds were dissolved in an acetate buffer, pH 3.5 (0.018% sodium acetate, 0.135% acetic acid, 0.9% sodium chloride in water for injection) to obtain 0.25% solution. The stability of the compounds was determined at 40° C. for 1, 2, 3, 4, 8, and 12 weeks. The concentration of the parent compound as well as the concentrations of the prodrug compounds 6, 7, and 8 at each time point by HPLC method.

[4] = Ocular bioavailability (aqueous humor levels by HPLC); assay type: in vivo; settings: single instillation into conjunctival sac
Description: Three rabbits were used per time point. The […] test substance was administered in a single instillation using a micropipette into the conjunctival sac of the right and the left eyes. The rabbits were anesthetized with an intramuscular injection of Imalgène® 1000 (ketamine 32 mg/kg), and Rompun® (xylasine 7.5 mg/kg). They were then desanguinated by cardiac puncture and thereafter euthanized by an overdose of pentobarbital. Immediately after death, the eyes were micro-dissected to obtain: cornea (C), aqueous humor (AH), and iris-ciliary body (ICB). All samples were stored at −80° C. Only aqueous humor (AH) samples were analyzed by HPLC.

[5] = biological target: Human recombinant adrenergic beta-1 (Homo sapiens, UniProt P08588); assay: Human recombinant adrenergic beta-1 radioligand binding assay ([125I]Cyanopindolol); settings: [125I]Cyanopindolol radioligand; read-out: Binding efficacy IC50
Chain of Human recombinant adrenergic beta-1 (P08588 whole entry): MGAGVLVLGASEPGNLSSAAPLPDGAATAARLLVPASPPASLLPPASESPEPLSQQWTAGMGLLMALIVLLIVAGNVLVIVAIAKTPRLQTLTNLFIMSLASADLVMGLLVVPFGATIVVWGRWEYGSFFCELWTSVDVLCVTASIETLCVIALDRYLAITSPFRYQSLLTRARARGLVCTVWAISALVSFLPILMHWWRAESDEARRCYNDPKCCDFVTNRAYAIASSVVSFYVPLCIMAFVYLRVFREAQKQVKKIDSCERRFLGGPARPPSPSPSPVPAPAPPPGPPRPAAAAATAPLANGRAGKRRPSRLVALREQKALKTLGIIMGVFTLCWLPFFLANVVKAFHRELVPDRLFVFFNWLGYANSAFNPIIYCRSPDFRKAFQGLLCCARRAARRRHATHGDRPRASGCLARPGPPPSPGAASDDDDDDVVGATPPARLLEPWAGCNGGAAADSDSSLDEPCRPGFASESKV
Description: Human recombinant adrenergic beta-1 Assays (Radioligand Binding) were conducted according to the procedure described by Feve, B., et al., Proc. Natl. Acad. Sci. USA, 91, 5677, 1994 using [[^125I]]Cyanopindolol as a radioligand. The results are expressed in IC50 (nM). (Table B)

IC50 [5] | SMILES | projected shelf-life of eye drop formulation [3] | level of the prodrug itself in aqueous humor [4] | further results
0.012 µM | Cc1cc(O)c(O)cc1C(=O)OC[C@@H](O)CNC(C)(C)COC(=O)C(C)(C)C [Compound 17, (S)-4,5-bis-dihydroxy-2-methyl-benzoic acid 3-[2-(2,2-dimethyl-propionyloxy)-1,1-dimethyl-ethylamino]-2-hydroxy-propyl ester] | – | – | –
0.0064 µM | Cc1cc(O)c(O)cc1C(=O)OC[C@@H](O)CNC(C)(C)COC(=O)C1CCOC1 (stereo partly drawn) [Compound 19, (S)-Tetrahydro-furan-3-carboxylic acid 2-[3-(4,5-dihydroxy-2-methyl-benzoyloxy)-2-hydroxy-propylamino]-2-methyl-propyl ester] | – | – | –

Further lines, the molecule ahead of its results:

SMILES | IC50 [5] | projected shelf-life of eye drop formulation [3] | level of the prodrug itself in aqueous humor [4] | further results
Cc1cc(O)c(O)cc1C(=O)OCC(CNC(C)(C)CNC(=O)C1CCOC1)OC(=O)C(C)(C)C (stereo not shown) [Compound 6, reference compound] | – | 2.6 months | below the detection limit | corneal sensitivity loss (albino rabbits [1]; at 1%): complete corneal sensitivity loss; ocular irritation (albino rabbits [2]; at 1% concentration): moderate irritation
Cc1cc(O)c(O)cc1C(=O)OCC(CNC(C)(C)CNC(=O)C1CCOC1)OC(=O)C1(C)CC1 (stereo not shown) [Compound 7, 4,5-Dihydroxy-2-methyl-benzoic acid 3-{1,1-dimethyl-2-[(tetrahydro-furan-3-carbonyl)-amino]-ethylamino}-2-(1-methyl-cyclopropanecarbonyloxy)-propyl ester] | – | at least 18 months | also present in aqueous humor | corneal sensitivity (local anesthetic activity) (albino rabbits [1]; single 50 μl instillation of 0.3%, 0.5%, 1.0% and 2.0% solution, compared to 0.4% oxybuprocaine): no corneal sensitivity (local anesthetic activity); ocular irritation (albino rabbits [2]; topical, six times every ten minutes at 0.3%, 0.5%, 1.0% and 2.0%, right conjunctival sac, vs 0.9% saline control): no ocular irritation; relative stability (percent degradation time course, FIG. 1) ([3]; 0.25% solution, 40° C., pH 3.5, up to 12 weeks): most stable
Cc1cc(O)c(O)cc1C(=O)OCC(CNC(C)(C)CNC(=O)C1CCOC1)OC(=O)C1CC1(C)C (stereo not shown) [Compound 8, 4,5-dihydroxy-2-methyl-benzoic acid 2-(2,2-dimethyl-cyclopropanecarbonyloxy)-3-{1,1-dimethyl-2-[(tetrahydro-furan-3-carbonyl)-amino]-ethylamino}-propyl ester] | – | 7.9 months | – | –
Cc1cc(O)c(O)cc1C(=O)OC[C@@H](O)CNC(C)(C)CO [Compound 15, (S)-4,5-dihydroxy-2-methyl-benzoic acid 2-hydroxy-3-(2-hydroxy-1,1-dimethyl-ethylamino)-propyl ester] | 0.039 µM | – | – | –
